Assays:
Format in all cases: cell-based
bifidobacteria [1] = test: Experimental Example 1-1: addition of amino acid and fructo-oligosaccharide to human feces suspension, anaerobic culture, quantitative PCR of bifidobacteria; details: amino acid added together with 0.5% FOS, compared with FOS alone, human feces suspension in PBS, 37° C., 4 days
Protocol: The PBS solutions for the Examples and Comparative Examples shown in Table 1-1 were prepared and used as media for a feces culture. PBS alone was used as a control. Fructo-oligosaccharide (FOS) manufactured by Wako Pure Chemical Industries, Ltd. (#064-02385) was used.
(§1) Thereafter, 10 ml of each solution was dispensed into glass vials and the glass vials were sterilized by autoclave, made anaerobic, and sealed with a butyl rubber stopper. The feces suspension was prepared by collecting about 10 g of feces from 3 healthy individuals (one man and two women) in their 20 s to 40 s and suspending same in 80 ml of anaerobic PBS. The feces suspension was added to each vial by 0.5 ml, placed in an incubator at 37° C., and anaerobically cultured for 4 days with tumble blending once per day. After completion of the culture, an intestinal bacterial pellet was obtained from the entire amount of the culture medium by centrifugation (8,000×g, 5 min). DNA was extracted from this pellet using ISOFECAL for BeadsBeat (manufactured by NIPPON GENE CO., LTD.), and quantitative PCR was performed using GeneAce SYBR qPCR Mix α (manufactured by NIPPON GENE CO., LTD.). Quantitative PCR was performed under the conditions of 45 cycles of 95° C. for 30 sec and 60° C. for 60 sec after 95° C. for 10 min. Primers for quantitative PCR used for detection bifidobacteria are as follows.
(§2) Using the results obtained by quantitative PCR, the relative amount when the control is 1 was calculated, and the results were normalized with z-score.

bifidobacteria [2] = test: Experimental Example 2: addition test of amino acid and galacto-oligosaccharide to human feces suspension; details: amino acid added together with 0.5% GOS, compared with GOS alone; human feces suspension in PBS, 4 days; quantitative PCR
Protocol: as §1
The PBS solutions for the Examples and Comparative Examples shown in Table 2 were prepared and used as media for feces culture. […]
as §2

bifidobacteria [3] = test: Experimental Example 1-2: addition test of amino acid and fructo-oligosaccharide to human feces suspension; details: amino acid added together with 0.5% FOS, compared with FOS alone; human feces suspension in PBS, 4 days; quantitative PCR
Protocol: as §1
The PBS solutions for the Examples and Comparative Examples shown in Table 1-2 were prepared and used as media for a feces culture. […]
as §2

Row | SMILES | proliferation of bifidobacteria (bifidobacteria [1]) | proliferation of bifidobacteria (bifidobacteria [2]) | proliferation of bifidobacteria (bifidobacteria [3])
1 | C[C@H](N)C(=O)O [Ala, L-alanine] | greater proliferation of bifidobacteria than that with FOS alone |  | 
2 | NC(=O)CC[C@H](N)C(=O)O [Gln, L-glutamine] | greater proliferation of bifidobacteria than that with FOS alone |  | 
3 | N[C@@H](CCC(=O)O)C(=O)O [Glu, L-glutamic acid] | greater proliferation of bifidobacteria than that with FOS alone | greater proliferation of bifidobacteria than that with GOS alone | 
4 | N[C@@H](Cc1c[nH]cn1)C(=O)O [His, L-histidine] |  |  | greater proliferation of bifidobacteria than that with FOS alone
5 | CC[C@H](C)[C@H](N)C(=O)O [Ile, L-isoleucine] | greater proliferation of bifidobacteria than that with FOS alone |  | 
6 | NCCCC[C@H](N)C(=O)O [Lys, L-lysine] | greater proliferation of bifidobacteria than that with FOS alone | greater proliferation of bifidobacteria than that with GOS alone | 
7 | O=C(O)[C@@H]1CCCN1 [Pro, L-proline] |  |  | greater proliferation of bifidobacteria than that with FOS alone
8 | CC(C)[C@H](N)C(=O)O [Val, L-valine] | greater proliferation of bifidobacteria than that with FOS alone |  | 
